Reference: the supplement of paper PMC11451515

Test system: SEM cells
Test: cell viability relative to DMSO control; higher = less cytotoxic
Conditions: 48 h
Method in brief: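 Leukemia cells (NOMO1 or SEM, 500 cells/well; P12-Ichikawa, 1000 cells/well) were seeded in 5 μl in 1536-well plates after at least four passages of adaptation to each medium. They received library compounds in DMSO by pin dosing, 11 threefold points from 47 μM to 0.79 nM. Luminescence with CellTiter-Glo One was read after 48 h at 37°C. Viability is stated per plate relative to DMSO wells, with cell-free wells as background.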

Cc1c(N)nc([C@H](CC(N)=O)NC[C@@H](N)C(N)=O)nc1C(=O)N[C@H](C(=O)N[C@@H](C)[C@H](O)[C@@H](C)C(=O)N[C@@H](C(=O)NCCc1nc(-c2nc(C(=O)NCCC[S+](C)C)cs2)cs1)[C@@H](C)O)C(O[C@H]1O[C@H](CO)[C@H](O)[C@@H](O)[C@H]1O[C@H]1O[C@H](CO)[C@@H](O)[C@H](OC(N)=O)[C@@H]1O)c1c[nH]cn1 (stereo partly drawn)
cell viability [%]
Conditions | HPLM + 10% dialyzed FBS | RPMI 5 mM glucose + 10% FBS | RPMI 5 mM glucose + 10% dialyzed FBS
0.000781 µM | 110 | 99.2 | 89.6
0.00234 µM | 115 | 109 | 110
0.00702 µM | 115 | 107 | 99.3
0.0211 µM | 113 | 114 | 111
0.0632 µM | 101 | 89.7 | 88.4
0.19 µM | 128 | 121 | 113
0.569 µM | 121 | 113 | 91.5
1.71 µM | 82.9 | 61.8 | 81.8
5.12 µM | 61.9 | 64.9 | 54.3
15.4 µM | 67.2 | 29.7 | 16.9
46.1 µM | 74.2 | 17.7 | 14.8
